Experimental data published in patent EP0368624A2, “Method and composition for stabilizing and solubilizing latex reagents” (Biotrack, Inc., priority 1988, dated 1990).

Assay: Recovery of activity of antibody-latex reagent after drying on plastic (turbidimetric agglutination rate vs liquid control)
Conditions: additive concentration 4 % in the aqueous latex suspension applied to the plastic
Text: An agglutinating polymer was made by covalent attachment of about nine molecules of a peptide antigen to polyaspartic acid (M=15,000). A latex reagent was made by adsorption of a monoclonal antibody (which binds to the peptide antigen) to small latex particles (85 nm diameter) by adsorption. […] The mixture was aspirated into a temperature controlled flow cell of a spectrophotometer with a 1 cm optical path length and rapidly heated to […]. The change of apparent absorbance at 540 nm was then recorded over 20s.
Liquid was removed by exposure to desiccant under a variety of conditions (flowing air, flowing dry N₂, or vacuum).
Additives were added to the latex suspension at the indicated concentrations prior to drying. Recovery is given in Table 2 as a percentage of the activity of a non-dried (liquid) control. […]

SMILES | Activity (%) Ref = Liq
OC[C@@H](O)[C@@H](O)[C@H](O)[C@H](O)CO [Mannitol] | 0%

Same assay, conditions: additive concentration 5 % in the aqueous latex suspension applied to the plastic

SMILES | Activity (%) Ref = Liq
O=C([O-])[C@H](O)[C@@H](O)[C@H](O)[C@H](O)CO.[Na+] [35D-Gluconic Acid-Na+, D-Gluconic Acid-Na+] | 41%
OC[C@@H](O)C(O)[C@H](O)CO [D-arabitol] | 101%
Cl.N[C@H]1C(O)O[C@H](CO)[C@@H](O)[C@@H]1O (stereo partly drawn) [D-glucosamine-HCl] | 25%
OC[C@@H](O)[C@H](O)[C@@H](O)CO [D-xylitol] | 92%
OC[C@H](O)C(O)[C@@H](O)CO [L-arabitol] | 94%
OC[C@@H](O)[C@H](O)[C@@H](O)CO [L-xylitol] | 94%
OC[C@@H](O)[C@@H](O)[C@@H](O)CO [Ribitol] | 70%
OC[C@@H](O)[C@@H](O)[C@H](O)[C@@H](O)CO [Sorbitol] | 5%

Assay: Agglutination of dried hepatitis B virus core antigen coated latex in cartridge with serum samples
Design: key: +: A positive reaction was recorded if the latex particles were agglutinated at the end of the track
Conditions: serum sample containing antibodies to hepatitis virus core antigen
Description: Antigen coated latex (prepared as in Example 5) (1 µL x 1.0% w/v suspended in 0·1M glycine pH 8·4 containing 0·1 6 M NaCl and 3 mM Sodium Azide either with or without 5% sucrose) was coated on the surface of piece of PETG plastic. After drying under a stream of dry nitrogen, the piece was incorporated into a cartridge by lamination of a track excised from double sided adhesive tape (4 mill thick) as described in USP 4,756,884. To test the activity of the dry reagent films, serum samples containing or not containing antibodies to hepatitis virus core antigen were applied to the sample application site and the reaction between the sample and the reagent film observed as the sample flowed over the film and the mixture was drawn down the part of the track distal from the sample application site. A positive reaction was recorded if the latex particles were agglutinated at the end of the track.

SMILES | Agglutination + sample
OC[C@H]1O[C@@](CO)(O[C@H]2O[C@H](CO)[C@@H](O)[C@H](O)[C@H]2O)[C@@H](O)[C@@H]1O [Sucrose] | +
